In patent US20140323296A1, “Pesticide Compositions and Methods for Their Use” (priority 2004, published 2014):
Read-outs that look alike come from different tables or passages of the source.

Legend:
Settings in all cases: in vivo
[1] = test system: tomato plants (Lycopersicon esculentum var. Celebrity Hybrid, NK); test: IA mitigation of insecticide phytotoxicity: KRYOCIDE with or without sucrose sprayed on potted tomato plants, vigor and appearance rating
Description: In general, tomato plants were contacted with three different treatment formulations: (1) the sodium aluminofluoride insecticide KRYOCIDE with water and surfactant, (2) an insecticide phytotoxicity reducing formulation according to the subject invention, i.e., KRYOCIDE/water/sucrose/surfactant, and (3) sucrose/water. An untreated control was also evaluated.
1) Nine week old potted tomato plants (Lycopersicon esculentum var. Celebrity Hybrid, NK) 2) Sodium Aluminofluoride 96% a.i. (KRYOCIDE) made up in a concentration equivalent to 15 lbs per 100 gallons water+Organosilicone Surfactant (Silwet L-77) at 3 oz per 100 gallons 3) KRYOCIDE at 15 lbs per 100 gallons spray mix+SILWET L-77 at 3 oz per 100 gallons spray mix+Sucrose at 25 lbs per 100 gallons spray mix 4) Sucrose at 25 lbs per 100 gallons spray mix+SILWET L-77 at 3 oz per 100 gallons

[2] = test system: Mung Bean plants (Phaseolus aureus); test: IB mitigation of bactericide-fungicide phytotoxicity: KOCIDE with or without sucrose sprayed on potted mung bean plants, leaf russeting, vigor and appearance rating
Description: In general, mung bean plants were contacted with three different treatment formulations: (1) the copper hydroxide bactericide-fungicide KOCIDE with water and surfactant, (2) a bactericide-fungicide phytotoxicity reducing formulation according to the subject invention, i.e., KOCIDE/water/sucrose/surfactant, and (3) sucrose/water. An untreated control was also evaluated.
1) Three week old potted Mung Bean plants (Phaseolus aureus) 2) Copper Hydroxide 20% a.i. (KOCIDE) made up in a concentration equivalent to 10 lbs per 100 gallons spray mix+Organosilicone Surfactant (SILWET L-77) at 3 oz per 100 gallons 3) KOCIDE at 10 lbs per 100 gallons spray mix+Sucrose at 25 lbs per 100 gallons+SILWET L-77 at 3 oz per 100 gallons 4) Sucrose at 25 lbs per 100 gallons+SILWET L-77 at 3 oz per 100 gallons

[3] = test system: tomato plants (Lycopersicon esculentum var. Celebrity Hybrid, NK)
Description: (§1) In general, tomato plants were contacted with three different treatment formulations: (1) the clorothalonil fungicide BRAVO WEATHER STIK with water and surfactant, (2) a fungicide phytotoxicity reducing formulation according to the subject invention, i.e., BRAVO WEATHER STIK/water/sucrose/surfactant, and (3) sucrose/water. An untreated control was also evaluated.
1) Seven week old potted tomato plants (Lycopersicon esculentum var. Celebrity Hybrid, NK) 2) Clorothalonil 47% a.i. (BRAVO WEATHER STIK) made up in a concentration equivalent to 2 pints per 100 gallons water+Organosilicone Surfactant (SILWET L-77) at 3 oz per 100 gallons 3) BRAVO WEATHER STIK at 2 pints per 100 gallons spray mix+SILWET L-77 at 3 oz per 100 gallons+Sucrose at 25 lbs per 100 gallons 4) Sucrose at 25 lbs per 100 gallons+SILWET L-77 at 3 oz per 100 gallons

[4] = test system: tomato plants (Lycopersicon esculentum var. Celebrity Hybrid, NK); test: ID mitigation of fungicide phytotoxicity: ORBIT with or without sucrose sprayed on potted tomato plants, vigor, leaf distortion and appearance rating
Description: as §1, with “propiconazole” for “clorothalonil”, “ORBIT” for “BRAVO WEATHER STIK”, “ORBIT/water/sucrose/surfactant,” for “BRAVO WEATHER STIK/water/sucrose/surfactant,”
1) Nine week old potted tomato plants (Lycopersicon esculentum var. Celebrity Hybrid, NK) 2) Propiconazole 41.8% a.i. (ORBIT) made up in a concentration equivalent to 12 oz per 100 gallons water+Organosilicone Surfactant (SILWET L-77) at 3 oz per 100 gal 3) ORBIT at 12 oz per 100 gallons spray mix+SILWET L-77 at 3 oz per 100 gallons+Sucrose at 25 lbs per 100 gallons 4) Sucrose at 25 lbs per 100 gallons+SILWET L-77 at 3 oz per 100 gallons

| Compound | overall vigor and appearance, Mean/Statistical Rank [1] | overall vigor and appearance, Replication 1 [1] | overall vigor and appearance, Replication 2 [1] | overall vigor and appearance, Replication 3 [1] | overall vigor and appearance, Replication 4 [1] | russeting of leaves and overall vigor and appearance, Mean/Statistical Rank [2] | russeting of leaves and overall vigor and appearance, Replication 1 [2] | russeting of leaves and overall vigor and appearance, Replication 2 [2] | russeting of leaves and overall vigor and appearance, Replication 3 [2] | russeting of leaves and overall vigor and appearance, Replication 4 [2] | overall vigor and appearance, Mean/Statistical Rank [3] | overall vigor and appearance, Replication 1 [3] | overall vigor and appearance, Replication 2 [3] | overall vigor and appearance, Replication 3 [3] | overall vigor and appearance, Replication 4 [3] | overall vigor, leaf distortion and appearance, Mean/Statistical Rank [4] | overall vigor, leaf distortion and appearance, Replication 1 [4] | overall vigor, leaf distortion and appearance, Replication 2 [4] | overall vigor, leaf distortion and appearance, Replication 3 [4] | overall vigor, leaf distortion and appearance, Replication 4 [4] |
| --- | --- | --- | --- | --- | --- | --- | --- | --- | --- | --- | --- | --- | --- | --- | --- | --- | --- | --- | --- | --- |
| OC[C@H]1O[C@@](CO)(O[C@H]2O[C@H](CO)[C@@H](O)[C@H](O)[C@H]2O)[C@@H](O)[C@@H]1O [Sucrose] | 9.75 b | 10 | 9 | 10 | 10 | 10.00 b | 10 | 10 | 10 | 10 | 10.00 b | 10 | 10 | 10 | 10 | 10.00 c | 10 | 10 | 10 | 10 |
| Clorothalonil [BRAVO WS] |  |  |  |  |  |  |  |  |  |  | 5.25 a | 5 | 5 | 6 | 5 |  |  |  |  |  |
